These results are taken from US7144867B2, “Anticancer glycoside compounds” (priority 2004, dated 2006).

Marks after values point to notes of the source that are not given here.

One data set relates to Bcl-2. The data set can be described thus: Western blotting, Bcl-2 in AsPC-1 cells. The data set is classed as cell-based, human. The conditions noted are these: 4 μg/mL, time-dependent (FIG. 4). Here is the method:
(§1) Western blotting. Cells were seeded into flasks and cultured to 50% to 60% confluence for 24 hours. Cells were then placed in serum-free medium with or without 4 μg/mL frondoside A for periods of 0, 24, 48 and 72 hours respectively. Proteins were extracted from attached and floating cells in lysis buffer containing 4% SDS. Protein concentrations were determined using the bicinchoninic acid assay with BSA as standard. Western blotting was carried out. In brief, equal amounts of protein in the cell lysates were separated on 15% SDS-PAGE and the proteins were transferred onto nitrocellulose membranes. After blocking non-specific sites with dried milk, membranes were incubated with the appropriate dilution of primary antibody. Membranes were then incubated with a horseradish peroxidase conjugated secondary antibody. Proteins were detected using an enhanced chemiluminescence detection system.

The test system of data set [1] is AsPC-1 cells. The data set can be described thus: Annexin V assay. The data set is classed as cell-based, human. The conditions noted are these: 4 μg/mL, within 3 hours. As for the experimental part: Annexin V assay. […] The cells were then rinsed with PBS and 500 μL of assay buffer once. Then, 200 μL of assay buffer, 4 μL of annexin-V FITC, and 20 μL of propidium iodide were added to each coverslip. The coverslip were then incubated at room temperature for 15 min in the dark and washed once with PBS. Cells were finally viewed under fluorescence microscope using a dual filter set for FITC and rhodamine, and pictures were taken using a Kodak DC 120 digital zoom camera (Eastman Kodak Company, Rochester, N.Y.).

The subject of another data set is p21. Description: Western blotting, p21 in AsPC-1 cells. The data set is classed as cell-based, human. The conditions noted are these: 4 μg/mL, time-dependent (FIG. 5). Here is the method:
as §1

Data set [2] relates to AsPC-1 cells. The data set can be described thus: 3H-methyl thymidine incorporation (cell proliferation assay). The data set is classed as cell-based, human. As for the experimental part: Cell culture. The poorly differentiated human pancreatic cancer line AsPC-1 was purchased from the American Type Culture Collection (ATCC, Manassas, Va., USA). Cells were cultured in MEM medium supplemented with penicillin G (100 U/mL), streptomycin (100 U/mL) and 10% FBS at 37° C. in humidified air with 5% CO2. Cells were harvested by incubation in trypsin-EDTA solution for 10–15 minutes. Cells were then centrifuged at 300×g for 5 minutes and cell pellets were suspended in fresh culture medium prior to seeding into culture flasks or plates.
Cell proliferation assay. Cell growth was analyzed by ^3H-methyl thymidine incorporation and cell counting. Following treatment of pancreatic cancer cells with a series of concentrations of frondoside A from 1 μg/mL to 16 μg/mL, cellular DNA synthesis was assayed by adding ^3H-methyl thymidine at 0.5 μLCi/well. After 2 hours incubation, the cells were washed twice with PBS, precipitated with 10% TCA for two hours, and solubilized from each well with 0.5 ml of 0.4 N NaOH. Incorporation of ^3H-methyl thymidine into DNA was measured by adding scintillation liquid and counting in a scintillation counter (LKB BackBeta, Wallac, Turku, Finland). For cell counting, cells were seeded in 12 wells plates and cultured with serum-free medium for 24 hours prior to frondoside A treatment and then switched to serum-free medium with or without 4 μg/mL frondoside A for the respective treatment time points (24, 48 and 72 hours). The cells were removed from the plate by trypsinization to produce a single cell suspension for cell counting. The cells were counted using Z1-Coulter Counter (Luton, UK).
In general terms: Incorporation of labelled thymidine or its analogues reports DNA synthesis.

Data set [3] concerns HUVEC (human umbilical vein endothelial cells). The data set can be described thus: Angiogenesis, tube formation on Matrigel. The data set is classed as cell-based. The conditions noted are these: for %, Inhibition of the total tube length (Mean ± SEM, n = 2): HUVEC, 18 hours. As for the experimental part:
Test Substance and Concentration.
Cell Line and Culture Media.
Evaluation of anti-proliferation for test substances. Matrigel matrix was thawed, kept on ice at 4° C. and 50 μL transferred to each well of a 96-microwell tissue culture plate. The plate was incubated at 37° C. for at least one hour to allow the matrix solution to solidify before treatment.
Aliquots of 200 μl of (HUVEC) suspension (about 1.5×10^4 cells/well) were placed in 96-well microtiter plate. Two microliters of compound test solution or vehicle (40% DMSO) was then added per well in duplicate and incubated at 5% CO2 at 37° C. for 18 hours. The final concentration of DMSO was 0.4%. […] Failure to form continuous networks between cell bodies in the presence of test substance was photographed and scored as to the extent of tube disruption at a magnification of 40×. […] The minimum inhibitory concentration (MIC) was calculated to assess the effect of the test substance on angiogenesis.

Data set [4] relates to PC-3 (human prostate adenocarcinoma). Description: cells. The conditions noted are these: for Percent Growth (Mean ± SEM, n = 2): 72-hour. Here is the method:
Test Substance and Concentration. Frondoside A (FAS) was dissolved in 100% DMSO and then diluted with sterile distilled water to obtain initial working solutions of 1000, 300, 100, 30, and 10 μM in 40% DMSO. […]
Cell Line and Culture Media. The tumor cell line PC-3 (human prostate adenocarcinoma), obtained from American Type Culture Collection (ATCC CRL-1435), was incubated in air atmosphere of 5% CO2 at 37° C. The culture medium used was F-12K Nutrient Mixture (Kaighn's Modification) with 3% fetal bovine serum, which was supplemented with 1% Antibiotic-Antimycotic.
Evaluation of anti-proliferation for test substances. Aliquots of 100 μl of cell suspension (about 2.5×10^3 cells/well) were placed in 96-well microtiter plates in an atmosphere of 5% CO2 at 37° C. […] Thus, the final concentration of DMSO was 0.4%. The Frondoside A was evaluated for possible inhibitory effects on cell proliferation at concentrations of 10, 3, 1, 0.3 and 0.1 μM. At the end of incubation, 20 μl of 90% alamarBlue reagent was added to each well for another 6-hour incubation before detection of cell viability by fluorescent intensity. Fluorescent intensity was measured using a Spectrafluor Plus plate reader with excitation at 530 nm and emission at 590 nm.
Determination of IC50, TGI and LC50. The measured results was calculated by the following formula: PG(%)=100%×(Mean Ftest−Mean Ftime0)/(Mean Fctrl−Mean Ftime0) If (Mean Ftest−Mean Ftime0)<0, then PG (%)=100%×(Mean Ftest−Mean Ftime0)/(Mean Ftime0−Mean Fblank) Where: • PG: percent growth • Mean Ftime0=The average of 2 measured fluorescent intensities of reduced alamarBlue at the time just before exposure of cells to the test substance. • Mean Ftest=The average of 2 measured fluorescent intensities of alamarBlue after 72-hour exposure of cells to the test substance. • Mean Fctrl=The average of 2 measured fluorescent intensities of alamarBlue after 72-hour incubation without the test substance. • Mean Fblank=The average of 2 measured fluorescent intensities of alamarBlue in medium without cells after 72-hour incubation.

`COC1C(O)C(CO)OC(OC2C(O)COC(OC3C(C)OC(OC4C(OC5CCC6(C)C7CCC89C(=O)OC(C)(CCCC(C)C)C8C(OC(C)=O)CC9(C)C7=CCC6C5(C)C)OCC(OS(=O)(=O)[O-])C4O)C(OC4OCC(O)C(O)C4O)C3O)C2O)C1O.[Na+]` [Frondoside A, 3-O-methyl-β-D-glucopyranosyl-(1→3)-β-D-xylopyranosyl-(1→4)-[β-D-xylopyranosyl-(1→2)]-β-D-quinovopyranosyl-(1→2)-4-O-sodium sulfate-β-D-xylopyranosyl-3-O-holost-7(8)-en-3β-ol-16β-O-acetate]: the “expression of Bcl-2” value in the data set with Bcl-2 is reported as “decreased expression”. Also, the “Annexin V binding” value in the data set with AsPC-1 cells [1] is given as “Annexin V binding was observed”. Further, in the data set with p21, the “expression of P21” value was “markedly increased”. In addition, the “reduction of incorporation of 3H-methyl thymidine into DNA” value in the data set with AsPC-1 cells [2] (4 μg/mL, within 24 hours) was “approximately 50%”. Further, in the data set with AsPC-1 cells [2] (AsPC-1 cells, 1 μg/mL to 16 μg/mL, concentration-dependent (FIG. 1)), the “inhibition of thymidine incorporation” value is recorded as “marked inhibition of thymidine incorporation”. The “concentrations causing cytotoxicity (cell necrosis)” value with AsPC-1 cells [2] (immediate necrosis of cells) is given as “higher than 16 μg/mL”. For the same compound, the “inhibition of tube formation relative to the vehicle-treated controls” value in data set [3] (100, 10 and 1 μM (≧30%)) is “significant inhibition”. Moreover, the “%, Inhibition of the total tube length (Mean ± SEM, n = 2)” value in data set [3] (0.01 μM) is listed as 1 ± 1%; in data set [3] (0.1 μM), 3 ± 4%; in data set [3] (1 μM), 88 ± 6^a,b %; in data set [3] (10 μM), 100 ± 0^a %; in data set [3] (100 μM), 100 ± 0^a %. Besides, the “MIC (Minimum Inhibitory Concentration)” value in data set [3] (tube formation, significant inhibition ≧30%) is 1 µM. Besides, the “Percent Growth (Mean ± SEM, n = 2)” value is reported as 98 ± 3% in data set [4] (PC-3, 0.1 μM); 103 ± 1% in data set [4] (PC-3, 0.3 μM); 98 ± 3% in data set [4] (PC-3, 1 μM); −98 ± 1% in data set [4] (PC-3, 3 μM); −97 ± 1% in data set [4] (PC-3, 10 μM). The “TGI (Total Growth Inhibition)” value in data set [4] (PC-3, semi-quantitative, nonlinear regression) turned out to be 1700 nM. In addition, in data set [4] (between 1 and 10 μM), the “growth inhibition of PC-3 relative to the vehicle treated control group” value is listed as “significant growth inhibition”. For the same compound, in data set [4] (read-out: IC50 (50% Inhibition Concentration), PC-3, semi-quantitative, nonlinear regression), the IC50 was determined as 1500 nM. For the same compound, in data set [4] (read-out: LC50 (50% Lethal Concentration), PC-3, semi-quantitative, nonlinear regression), the CC50 is 2000 nM.
